Experimental data taken from patent US20260166159A1, “KRAS G12D DEGRADATION AGENT, AND PREPARATION METHOD AND USE THEREFOR” (LEADINGTAC PHARMACEUTICAL (SHAOXING) CO., LTD., priority 2022, published 2026).

Legend:
Type in all cases: cell-based
[1] = biological target: T1, KRAS-G12D (Homo sapiens, UniProt P01116, G12D); assay: KRAS-G12D degradation assay (Western Blot), A-427 cells; conditions: A427 cells, 24 h, class symbols; for Dmax: A-427
T1 construct: endogenous in cells; host or cells: A-427 (ATCC), AGS, AsPc-1, Panc 04.03
T1 sequence (P01116 1-188 isoform P01116-2 G12D): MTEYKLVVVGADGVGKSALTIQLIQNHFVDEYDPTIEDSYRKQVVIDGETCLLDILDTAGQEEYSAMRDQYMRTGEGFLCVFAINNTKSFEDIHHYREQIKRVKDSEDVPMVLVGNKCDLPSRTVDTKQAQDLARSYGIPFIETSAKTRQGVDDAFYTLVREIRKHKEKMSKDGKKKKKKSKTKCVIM
Outline: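 Western blotting of lysates (5 μg protein) quantified KRAS against a β-actin reference after 24 h exposure to compound at final 0.03–3000 nM in 0.25% DMSO. Cells were A-427, AGS, AsPc-1 or Panc 04.03, all KRAS G12D, at 5×10^5/well. Degradation versus control yielded DC50 and Dmax.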

[2] = test system: KRAS G12D mutant human lung cancer cell A427; assay: 3D cell proliferation inhibition assay, A427; conditions: A-427, 168 h, A427, 7 days, CTG, class symbols
Outline: (§1)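 For this 7-day anchorage-independent assay, 5×10^2 cells per well were exposed to 10000–0.026 nM test compound with 0.2% DMSO at 37 °C. ATP-based luminescence (CTG) gave viability, and percent inhibition versus DMSO controls was curve-fitted to obtain IC50.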

[3] = test system: KRAS G12D mutant human gastric cancer cell AGS; assay: 3D cell proliferation inhibition assay, AGS; conditions: 168 h, 7 days, CTG, class symbols
Outline: as §1

`CCc1c(F)ccc2cc(O)cc(-c3ncc4c(N5CC6CCC(C5)N6)nc(OCC5(CN6CCN(CC7CCC8(CC7)CCN(C(=O)c7ccc(OC)c(N9CCC(=O)NC9=O)c7)CC8)CC6)CC5)nc4c3F)c12` [Example 15, 1-(5-(9-((4-((1-(((4-(3,8-diazabicyclo[3.2.1]octan-3-yl)-7-(8-ethyl-7-fluoro-3-hydroxynaphthalen-1-yl)-8-fluoropyrido[4,3-d]pyrimidin-2-yl)oxy)methyl)cyclopropyl)methyl)piperazin-1-yl)methyl)-3-azaspiro[5.5]undecane-3-carbonyl)-2-methoxyphenyl)dihydropyrimidine-2,4(1H,3H)-dione] was tested, and the DC50 [1] was no more than 50 nM, the Dmax [1] was 80 to 100% and the IC50 [2] was no more than 50 nM. The IC50 [3] was no more than 50 nM.
`Cc1ccc2[nH]ncc2c1-c1ncc2c(N3CC4CCC(C3)N4)nc(OCC3(CN4CCN(CC5CCC6(CC5)CCN(C(=O)c5ccc(Cl)c(N7CCC(=O)NC7=O)c5)CC6)CC4)CC3)nc2c1F` [Example 16, 1-(5-(9-((4-((1-(((4-(3,8-diazabicyclo[3.2.1]octan-3-yl)-8-fluoro-7-(5-methyl-1H-indazol-4-yl)pyrido[4,3-d]pyrimidin-2-yl)oxy)methyl)cyclopropyl)methyl)piperazin-1-yl)methyl)-3-azaspiro[5.5]undecane-3-carbonyl)-2-chlorophenyl)dihydropyrimidine-2,4(1H,3H)-dione] gave a DC50 [1] of 1000 to 10000 nM, a Dmax [1] of 30 to 50% and an IC50 [2] of 100 to 500 nM. For the same molecule, the IC50 [3] was 1000 to 10000 nM.
In the case of `C#Cc1c(F)ccc2cc(O)cc(-c3ncc4c(N5CC6CCC(C5)N6)nc(OCC5(CN6CCN(CC7CCC8(CC7)CCN(C(=O)c7ccc(Cl)c(N9CCC(=O)N(C)C9=O)c7)CC8)CC6)CC5)nc4c3F)c12` [Example 17, 1-(5-(9-((4-((1-(((4-(3,8-diazabicyclo[3.2.1]octan-3-yl)-7-(8-ethynyl-7-fluoro-3-hydroxynaphthalen-1-yl)-8-fluoropyrido[4,3-d]pyrimidin-2-yl)oxy)methyl)cyclopropyl)methyl)piperazin-1-yl)methyl)-3-azaspiro[5.5]undecane-3-carbonyl)-2-chlorophenyl)-3-methyldihydropyrimidine-2,4(1H,3H)-dione], the DC50 [1] is reported as 1000 to 10000 nM, the Dmax [1] is reported as less than 30% and the IC50 [2] is reported as 50 to 100 nM. The IC50 [3] was 50 to 100 nM.
In the case of `C#Cc1c(F)ccc2cc(O)cc(-c3ncc4c(N5CC6CCC(C5)N6)nc(OCC5(CN6CCN(CCC7CCC8(CC7)CCN(C(=O)c7ccc(Cl)c(N9CCC(=O)NC9=O)c7)CC8)CC6)CC5)nc4c3F)c12` [Example 18, 1-(5-(9-(2-(4-((1-(((4-(3,8-diazabicyclo[3.2.1]octan-3-yl)-7-(8-ethynyl-7-fluoro-3-hydroxynaphthalen-1-yl)-8-fluoropyrido[4,3-d]pyrimidin-2-yl)oxy)methyl)cyclopropyl)methyl)piperazin-1-yl)ethyl)-3-azaspiro[5.5]undecane-3-carbonyl)-2-chlorophenyl)dihydropyrimidine-2,4(1H,3H)-dione], the DC50 [1] is reported as no more than 50 nM, the Dmax [1] is reported as 80 to 100% and the IC50 [2] is reported as no more than 50 nM. For the same molecule, the IC50 [3] was no more than 50 nM.
In the case of `CCc1cccc2cc(O)cc(-c3ncc4c(N5CC6CCC(C5)N6)nc(OCC5(CN6CCN(CCCC7CCN(C(=O)c8ccc(Cl)c(N9CCC(=O)NC9=O)c8)CC7)CC6)CC5)nc4c3F)c12` [Example 19, 1-(5-(4-(3-(4-((1-(((4-(3,8-diazabicyclo[3.2.1]octan-3-yl)-7-(8-ethyl-3-hydroxynaphthalen-1-yl)-8-fluoropyrido[4,3-d]pyrimidin-2-yl)oxy)methyl)cyclopropyl)methyl)piperazin-1-yl)propyl)piperidine-1-carbonyl)-2-chlorophenyl)dihydropyrimidine-2,4(1H,3H)-dione], the DC50 [1] is reported as 50 to 100 nM, the Dmax [1] is reported as 80 to 100% and the IC50 [2] is reported as 100 to 500 nM. It also gave an IC50 [3] of no more than 50 nM.
Molecule `CCc1cccc2cc(O)cc(-c3ncc4c(N5CC6CCC(C5)N6)nc(OCC5(CN6CCN(CC7CCC8(CC7)CCN(C(=O)c7ccc(OC)c(N9CCC(=O)NC9=O)c7)CC8)CC6)CC5)nc4c3F)c12` [Example 20, 1-(5-(9-((4-((1-(((4-(3,8-diazabicyclo[3.2.1]octan-3-yl)-7-(8-ethyl-3-hydroxynaphthalen-1-yl)-8-fluoropyrido[4,3-d]pyrimidin-2-yl)oxy)methyl)cyclopropyl)methyl)piperazin-1-yl)methyl)-3-azaspiro[5.5]undecane-3-carbonyl)-2-methoxyphenyl)dihydropyrimidine-2,4(1H,3H)-dione] has a DC50 [1] of no more than 50 nM, a Dmax [1] of 80 to 100% and an IC50 [2] of no more than 50 nM. It also gave an IC50 [3] of no more than 50 nM.
`C#Cc1c(F)ccc2cc(O)cc(-c3ncc4c(N5CC6CCC(C5)N6)nc(OCC5(CN6CCC(COCCC7CCN(C(=O)c8ccc(Cl)c(N9CCC(=O)NC9=O)c8)CC7)CC6)CC5)nc4c3F)c12` [Example 21, 1-(5-(4-(2-((1-((1-(((4-(3,8-diazabicyclo[3.2.1]octan-3-yl)-7-(8-ethynyl-7-fluoro-3-hydroxynaphthalen-1-yl)-8-fluoropyrido[4,3-d]pyrimidin-2-yl)oxy)methyl)cyclopropyl)methyl)piperidin-4-yl)methoxy)ethyl)piperidine-1-carbonyl)-2-chlorophenyl)dihydropyrimidine-2,4(1H,3H)-dione] was tested, and the DC50 [1] was no more than 50 nM, the Dmax [1] was 80 to 100% and the IC50 [2] was 100 to 500 nM. It also gave an IC50 [3] of no more than 50 nM.
Molecule `CCc1c(F)ccc2cc(O)cc(-c3ncc4c(N5CC6CCC(C5)N6)nc(OCC5(CN6CCN(CCCC7CCN(C(=O)c8ccc(Cl)c(N9CCC(=O)NC9=O)c8)CC7)CC6)CC5)nc4c3F)c12` [Example 22, 1-(5-(4-(3-(4-((1-(((4-(3,8-diazabicyclo[3.2.1]octan-3-yl)-7-(8-ethyl-7-fluoro-3-hydroxynaphthalen-1-yl)-8-fluoropyrido[4,3-d]pyrimidin-2-yl)oxy)methyl)cyclopropyl)methyl)piperazin-1-yl)propyl)piperidine-1-carbonyl)-2-chlorophenyl)dihydropyrimidine-2,4(1H,3H)-dione] has a DC50 [1] of no more than 50 nM, a Dmax [1] of 50 to 80% and an IC50 [2] of 50 to 100 nM. For the same molecule, the IC50 [3] was no more than 50 nM.
Molecule `C#Cc1c(F)ccc2cc(O)cc(-c3ncc4c(N5CC6CCC(C5)N6)nc(OCC(C)(C)CN5CCN(CCCC6CCN(C(=O)c7ccc(Cl)c(N8CCC(=O)NC8=O)c7)CC6)CC5)nc4c3F)c12` [Example 23, 1-(5-(4-(3-(4-(3-((4-(3,8-diazabicyclo[3.2.1]octan-3-yl)-7-(8-ethynyl-7-fluoro-3-hydroxynaphthalen-1-yl)-8-fluoropyrido[4,3-d]pyrimidin-2-yl)oxy)-2,2-dimethylpropyl)piperazin-1-yl)propyl)piperidine-1-carbonyl)-2-chlorophenyl)dihydropyrimidine-2,4(1H,3H)-dione] has a DC50 [1] of 1000 to 10000 nM, a Dmax [1] of 30 to 50% and an IC50 [2] of 100 to 500 nM. For the same molecule, the IC50 [3] was 50 to 100 nM.
`C#Cc1c(F)ccc2cc(O)cc(-c3ncc4c(N5CC6CCC(C5)N6)nc(OCC5(CN6CCN(CCCC7CCN(C(=O)c8ccc(Cl)c(N9CCC(=O)NC9=O)c8)CC7)CC6)CCC5)nc4c3F)c12` [Example 24, 1-(5-(4-(3-(4-((1-(((4-(3,8-diazabicyclo[3.2.1]octan-3-yl)-7-(8-ethynyl-7-fluoro-3-hydroxynaphthalen-1-yl)-8-fluoropyrido[4,3-d]pyrimidin-2-yl)oxy)methyl)cyclobutyl)methyl)piperazin-1-yl)propyl)piperidine-1-carbonyl)-2-chlorophenyl)dihydropyrimidine-2,4(1H,3H)-dione] was tested, and the DC50 [1] was no more than 50 nM, the Dmax [1] was 80 to 100% and the IC50 [2] was 100 to 500 nM. It also gave an IC50 [3] of 50 to 100 nM.
Work on `C#Cc1c(F)ccc2cc(O)cc(-c3ncc4c(N5CC6CCC(C5)N6)nc(OCC(C)(C)CN5CCN(CC6CCC7(CC6)CCN(C(=O)c6ccc(OC)c(N8CCC(=O)NC8=O)c6)CC7)CC5)nc4c3F)c12` [Example 26, 1-(5-(9-((4-(3-((4-(3,8-diazabicyclo[3.2.1]octan-3-yl)-7-(8-ethynyl-7-fluoro-3-hydroxynaphthalen-1-yl)-8-fluoropyrido[4,3-d]pyrimidin-2-yl)oxy)-2,2-dimethylpropyl)piperazin-1-yl)methyl)-3-azaspiro[5.5]undecane-3-carbonyl)-2-methoxyphenyl)dihydropyrimidine-2,4(1H,3H)-dione] yielded a DC50 [1] of 1000 to 10000 nM, a Dmax [1] of 30 to 50% and an IC50 [2] of 50 to 100 nM. For the same molecule, the IC50 [3] was 50 to 100 nM.
`C#Cc1c(F)ccc2cc(O)cc(-c3ncc4c(N5CC6CCC(C5)N6)nc(OCC5(CN6CCN(CC7CCC8(CC7)CCN(C(=O)c7ccc(Br)c(N9CCC(=O)NC9=O)c7)CC8)CC6)CC5)nc4c3F)c12` [Example 29, 1-(5-(9-((4-((1-(((4-(3,8-diazabicyclo[3.2.1]octan-3-yl)-7-(8-ethynyl-7-fluoro-3-hydroxynaphthalen-1-yl)-8-fluoropyrido[4,3-d]pyrimidin-2-yl)oxy)methyl)cyclopropyl)methyl)piperazin-1-yl)methyl)-3-azaspiro[5.5]undecane-3-carbonyl)-2-bromophenyl)dihydropyrimidine-2,4(1H,3H)-dione] gave a DC50 [1] of no more than 50 nM, a Dmax [1] of 80 to 100% and an IC50 [2] of no more than 50 nM. It also gave an IC50 [3] of no more than 50 nM.
Work on `CCc1c(F)ccc2cc(O)cc(-c3ncc4c(N5CC6CCC(C5)N6)nc(OCC5(CN6CCN(CC7CCC8(CC7)CCN(C(=O)c7ccc(Cl)c(N9CCC(=O)NC9=O)c7)CC8)CC6)CC5)nc4c3F)c12` [Example 30, 1-(5-(9-((4-((1-(((4-(3,8-diazabicyclo[3.2.1]octan-3-yl)-7-(8-ethyl-7-fluoro-3-hydroxynaphthalen-1-yl)-8-fluoropyrido[4,3-d]pyrimidin-2-yl)oxy)methyl)cyclopropyl)methyl)piperazin-1-yl)methyl)-3-azaspiro[5.5]undecane-3-carbonyl)-2-chlorophenyl)dihydropyrimidine-2,4(1H,3H)-dione] yielded a DC50 [1] of no more than 50 nM, a Dmax [1] of 50 to 80% and an IC50 [2] of no more than 50 nM. The IC50 [3] was no more than 50 nM.
